In US5747545A, “Method of preventing NMDA receptor complex-mediated Neuronal damage” (priority 1995, dated 1998):
Entries after “also recorded” stand apart in the source; their conditions may differ.

Columns and labels:
[1] = tested on: NMDA receptor (rat cortical neurons in culture); assay: Digital fura-2 imaging of NMDA-evoked intracellular [Ca2+] in cultured cortical neurons; type: cell-based, rat (Sprague-Dawley); details: after 2 mM DTT; 3 min exposure to 100 μM SNOC; NMDA 50 μM; FIG. 5A, P<0.01
physchem = type: physicochemical; details: pH 7.4
[2] = tested on: cortical neurons (neuronal survival)
Description: S-nitrosocysteine was added as a source of NO.cndot. to cerebrocortical cultures (Lei et al., (1992) Neuron 8:1087-1099; Stamler et al., (1992) Science 258:1898-1902).
Peroxynitrite leads to lipid peroxidation and massive oxidation of sulfhydryls (Radi et al., (1991) J. Biol. Chem. 266:4244-4250; Radi et al., (1991) Arch. Biochem. Biophys. 288:481-487).
Values are expressed as mean+s.e.m. (n=9). Statistical comparisons were performed by an analysis of variance followed by a Scheffe multiple comparison of means (*, P<0.01 compared to control; **, P<0.05 compared to control; .dagger., P<0.01 compared to nitroso compound+SOD/catalase).
Specifically, the data in FIG. 7 were generated using mixed neuronal and glial cortical cultures from neonatal rats, as described previously (Lei, et al., (1992) Neuron 8:1087-1099). In at least three separate experiments, triplicate cultures were incubated overnight in Earle's buffered saline solution (EBSS) containing various concentrations of SNOC, peroxynitrite, SOD, catalase, or glutamate. […] The culture fluid was assayed for […] (LDH) as an indicator of neuronal survival by measuring the absorbance at 450 nm (Koh et al., (1987) J. Neurosci. Meth. 20:83-90). The cultures were also scored for neuronal viability by cell counting, generally with 0.2% trypan blue, after fixation in 2.5% glutaraldehyde, as described above. Neurons from cultures grown on 15 mm diameter cover slips were counted in a masked fashion in ~30 microscopic fields at 200 x.

[3] = tested on: retinal ganglion cells (NMDA receptor-mediated neurotoxicity); assay: Retinal ganglion cell survival assay (endogenous glutamate-related toxin, high calcium, low magnesium medium); type: cell-based, rat (Long-Evans); details: FIG. 3'
Description: To test amantadine derivatives for their ability to prevent neurotoxicity, neuronal cell death may be assayed as follows. […] Two to 6 days later, the animals are sacrificed by decapitation and enucleated, and the retinas quickly removed. The retinas are dissociated by mild treatment with the enzyme papain and cultured in Eagle's minimum essential medium (MEM, catalog #1090, Gibco, Grand Island, N.Y.) supplemented with 0.7% (w/v) methylcellulose, 0.3% (w/v) glucose, 2 mM glutamine, 1 μg/ml gentamicin, and 5% (v/v) rat serum, as described in Lipton et al., J. Physiol. 385:361, 1987. The cells are plated onto 75 mm^2 glass coverslips coated with poly-L-lysine in 35 mm tissue culture dishes. […]
To perform the viability test, the cell-culture medium is exchanged for physiological saline containing 0.0005% fluorescein diacetate for 15-45 s, and then cells are rinsed in saline. […] In contrast, the viable retinal ganglion cells display not only a blue color in the UV light but also a yellow-green fluorescence with filters appropriate for fluorescein. Thus, the use of two exchangeable fluorescence filter sets permits the rapid determination of viable ganglion cells in the cultures. […]

[4] = tested on: NMDA receptor (rat retinal ganglion cells); assay: Whole-cell patch clamp of NMDA-elicited current on rat retinal ganglion cells; type: cell-based, rat (Long-Evans)
Excerpt: (§1) FIGS. 4A'-4B' depict evidence for open-channel block of NMDA-elicited whole-cell current by memantine (MEM) on rat retinal ganglion cells. […] A rapid application system was used to administer the drugs, and a fast washout method was used in the experiments shown in FIGS. 4A' and 4B'.
(§2) For retinal ganglion cell labeling, dissociation, and culture, we used techniques that have been detailed elsewhere (Leifer et al. (1984) Science 224:303-306). […] Two to six days later, the animals were killed by decapitation. Following enucleation, the retinas were dissociated with mild treatment with the enzyme papain. The retinal cells were than plated onto glass coverslips coated with poly-L-lysine in 35 mm tissue culture dishes. The growth medium was Eagle's minimum essential medium supplemented with 0.7% (w/v) methylcellulose, 0.3% (w/v) glucose, 2 mM glutamine, 5% (v/v) rat serum, and 1 μg/ml gentamicin. Retinal ganglion cells were identified by the presence of the retrogradely transported dye granular blue.
Whole-cell and single-channel recordings of rat retinal ganglion cells were performed as described in detail elsewhere (Hamill et al., 1981; Lipton and Tauck, 1987). The neurons were continuously superfused in a chamber at 27°-29° C. with a bath solution composed of (in mM) NaCl, 137.6; KCl, 5.8; CaCl2, 2.5; HEPES, 5; glucose, 22.2; with phenol red, 0.001% (v/v); glycine, 1 μM; pH 7.2; and no added magnesium. The patch pipettes were filled with an intracellular solution containing (in mM) CsCl, 120; tetraethylammonium chloride, 20; HEPES, 10; EGTA, 2.25; CaCl2, 1; and MgCl2, 2; and sometimes with 3 mM Mg-ATP to minimize rundown in prolonged recordings (pH 7.2). […]. Solution changes could be achieved rapidly, within 50-100 msec, by moving the array of constantly flowing pipette tips relative to the cell with a micromanipulator driver. A control pipette containing bath solution and 1 μM TTX was used to wash out NMDA-inducedcurrent rapidly.

[5] = tested on: NMDA antagonist (MK-801) binding to post-mortem human brain homogenates; details: Kornhuber et al. 1989; cited from earlier work
[6] = tested on: quisqualate (QUIS)-elicited current (rat retinal ganglion cells); assay: Whole-cell patch clamp of quisqualate-elicited current on rat retinal ganglion cells; type: cell-based, rat (Long-Evans); details: 12 μM memantine, 5 μM quisqualate
Excerpt: as §1, §2
(§3) Whole-cell and single-channel recordings of rat retinal ganglion cells were performed as described in detail elsewhere (Hamill et al., 1981; Lipton and Tauck, 1987). […]

NMDA receptor channels = details: Bormann 1989; cited from earlier work
[7] = tested on: kainate (KA)-elicited current (rat retinal ganglion cells); assay: Whole-cell patch clamp of kainate-elicited current on rat retinal ganglion cells; type: cell-based, rat (Long-Evans); details: 12 μM memantine, 50 μM kainate
Excerpt: as §1, §2, §3

Row | SMILES | Effect on NMDA-evoked [Ca2+]i response (SNOC experiment) [1] | half-life (physchem) [min] | Killing of cortical neurons [2] | Maximally-lethal concentration [2] [µM] | minimal effective concentration ([3]; Rattus norvegicus, compared to control, read-out: Concentration at which increased neuronal survival reached statistical significance) [µM] | Effect on retinal ganglion cell death from endogenous glutamate-related toxin ([3]; memantine 1-25 μM, 16-20 h, 37° C.) | Kinetics for blocking/unblocking NMDA receptor-mediated response [4] | Effect of memantine when administered alone ([4]; 12 μM memantine alone, -60 mV, FIG. 4b' left) | Effect on NMDA-induced current ([4]; 12 μM memantine, 200 μM NMDA, -50 and +50 mV) | Inhibition of response to NMDA ([4]; 12 μM memantine, 200 μM NMDA, -60 mV, n=17) [%] | Inhibition of binding of MK-801 [5] | Effect on quisqualate-elicited current [6] | Block of NMDA receptor channels (NMDA receptor channels) | Effect on kainate-elicited current [7]
1 | N[C@@H](CSN=O)C(=O)O [SNOC, S-nitrosocysteine] | recovered only slightly | ~0.5 | dose-dependent killing of cortical neurons | 200 | – | – | – | – | – | – | – | – | – | –
2 | CC12CC3CC(C)(C1)CC(N)(C3)C2 [memantine, 1-amino-3,5-dimethyl adamantine] | – | – | – | – | 6 | prevented retinal ganglion cell death from the endogenous glutamate-related toxin in a dose-dependent manner; also recorded: blocks neuronal cell death mediated by excessive stimulation of the NMDA receptor | relatively rapid | lack of effect | blocking effect | 90 | inhibits the binding of an NMDA antagonist (MK-801) | did not affect the current | blocks NMDA receptor channels | did not affect the current
